# Source: patent US20250195553A1, “Use of Genipin-1-B-D-Gentiobioside in Preparation of Drug” (Guizhou Bailing Group Pharmaceutical Co., Ltd., priority 2023, published 2025)
# Read-outs that look alike come from different tables or passages of the source.
# What was measured:
# SARS-CoV-2 = test: Protective effect against death in SARS-CoV-2 infected mice; assay type: in vivo, hACE2 transgenic C57BL/6 mice; settings: for Number of Survivors / Number of Deaths: 8 mice; for Number of Deaths: 5-day
# Procedure: 1.1 Test Drug: Genipin-1-β-D-gentiobioside. […] Dosage for mice: 37.5 mg/kg and 75 mg/kg, administered by intraperitoneal injection once daily for 5 consecutive days.
# 1.2 Experimental Animals: human angiotensin-converting enzyme 2 (hACE2) transgenic C57BL/6 mice, aged 6˜7 weeks, weighing 18˜25 g, a total of 32 mice provided by GemPharmatech Co., Ltd., with a license number of SCXK (Su) 2018-008.
# 2.1 Grouping and Drug Administration: hACE2 transgenic C57BL/6 mice were divided into four groups, namely the blank control group, the SARS-CoV-2 infection group, the Genipin-1-β-D-gentiobioside (37.5 mg/kg) treatment group, and the Genipin-1-β-D-gentiobioside (75 mg/kg) treatment group, with 8 mice in each group. Except for the normal group, which received intranasal administration of Phosphate Buffered Saline (PBS), the other groups were infected with 10^4 Plaque Forming Unit (PFU) of Severe Acute Respiratory Syndrome Coronavirus 2 (SARS-CoV-2) virus via intranasal instillation. Two hours' post-infection, the treatment groups received intraperitoneal injections of the drug once daily for 5 consecutive days. Mouse deaths were recorded daily after infection, and the 5-day mortality rate was calculated. At the end of the experiment, the lung tissues were collected and homogenized for virus titer detection.
# [1] = system: Human Coronavirus 229E (HCoV-229E); assay type: in vivo; settings: 4 days
# [2] = system: Human Coronavirus OC43 (HCoV-OC43); assay type: in vivo; settings: 4 days
# [3] = system: Mycoplasma Pneumoniae (MP); test: Mycoplasma pneumoniae-infected mouse pneumonia model: lung index; assay type: in vivo, BALB/C mice; design: First Batch Inhibition Rate: unit not given here; settings: 4 days
# [4] = system: Mycoplasma Pneumoniae (MP); test: Inflammatory factors in lung tissue of MP-infected mice (ELISA); assay type: in vivo, BALB/C mice; settings: 4 days
# Procedure: […] Each group consisted of 10 mice, with an equal number of males and females. Except for the normal control group, all mice were lightly anesthetized with isoflurane and infected intranasally with Mycoplasma Pneumoniae (50 μl per mouse) for three consecutive days. On the day of infection, each treatment group received nebulized medication once daily for four consecutive days, while the normal control group and model control group received nebulized saline under the same conditions. On the fifth day, the mice were weighed, sacrificed by cervical dislocation, and their lung tissues were dissected, weighed, and used to calculate the lung index and lung index inhibition rate; measure the levels of inflammatory factors in the lung tissue; measure the serum CRP levels; and conduct pathological examinations of the lung tissue. The results were statistically analyzed using the t-test for intergroup comparisons.
# (1) Sample Collection and Storage: Tissue Homogenate Samples: After weighing, lung tissues were collected from 8 mice in each group and stored at −80° C. The MP Fastprep-24 5G Rapid Sample Preparation System was used to homogenize the tissues, followed by centrifugation at […] and 3000 r/min for 10 minutes using a low-temperature high-speed centrifuge. The supernatant was then aspirated, aliquoted, and stored at −80° C. for future use, avoiding repeated freeze-thaw cycles.
# (2) The microplate, which had been equilibrated to room temperature, was removed from the sealed bag. Different concentrations of standards were added to the corresponding wells, with 50 μL per well. For experimental samples, 10 μL of sample was added to each well, followed by 40 μL of diluent. Except for the blank wells, 100 μL of HRP (Horseradish Peroxidase) was added to each well. The reaction wells were sealed with sealing tape and incubated at 37° C. for 1 hour. The plate was then washed with wash buffer four times. After the final wash, the plate was inverted and all residual liquid was patted dry on absorbent paper. 50 μL of both Substrate A and Substrate B were added to each well. The reaction wells were then sealed with sealing tape and incubated at 37° C. for 15 minutes. After that, 50 μL of stop solution was added to each well, and the absorbance at 450 nm was measured using a microplate reader within 15 minutes. The results were then calculated.
# [5] = system: Lipopolysaccharide (LPS)-induced pneumonia model in mice; test: LPS-induced pneumonia model in mice, intravenous injection: lung index; assay type: in vivo, ICR mice; settings: for Lung Index: 6 h after LPS
# Procedure: Sixty healthy mice, weighing 18˜20 g, half male and half female, were selected and randomly grouped after stratification by weight; they were divided into a normal control group, a model control group, three Genipin-1-β-D-gentiobioside dose groups (150 mg/kg/d, 75 mg/kg/d, 37.5 mg/kg/d), and a positive control drug Sivelestat Sodium 50 mg/kg/d group, with 10 mice in each group, half male and half female. After grouping, each treatment group was administered intravenously at 20 ml/kg once daily for 2 consecutive days, while the normal control group and model control group were injected with physiological saline. One hour after the second dose, except for the normal control group, the other groups were lightly anesthetized with isoflurane, and a 20 mg/ml LPS physiological saline solution was administered intranasally to the mice at 0.05 ml/mouse to induce the pneumonia model. Six hours after infection, the animals were sacrificed, dissected, and their lungs were removed and weighed to calculate the lung index (lung index=lung weight/body weight×100%).
# [6] = 37.5 mg/kg intraperitoneal once daily 5 days
# [7] = 75 mg/kg intraperitoneal once daily 5 days
# [8] = 37.5 mg/kg i.v. once daily 2 days
# [9] = 75 mg/kg i.v. once daily 2 days
# [10] = 150 mg/kg i.v. once daily 2 days
compound,measurement,setting,value
COC(=O)C1=CO[C@@H](O[C@@H]2O[C@H](CO[C@@H]3O[C@H](CO)[C@@H](O)[C@H](O)[C@H]3O)[C@@H](O)[C@H](O)[C@H]2O)[C@@H]2C(CO)=CC[C@H]12 [Genipin-1-β-D-gentiobioside],Death Rate,SARS-CoV-2; [6],37.5%
same,Survival Rate,SARS-CoV-2; [6],62.5%
same,Number of Survivors,SARS-CoV-2; [6],5
same,Number of Deaths,SARS-CoV-2; [6],3
same,Death Rate,SARS-CoV-2; [7],25%
same,Survival Rate,SARS-CoV-2; [7],75%
same,Number of Survivors,SARS-CoV-2; [7],6
same,Number of Deaths,SARS-CoV-2; [7],2
same,Inhibition Rate (lung index),[1]; 9.375 mg/ml inhalation 25 min,65.98%
same,Lung Index,[1]; 9.375 mg/ml inhalation 25 min,0.77 ± 0.08 g lung weight × 100 g/body weight
same,Inhibition Rate (lung index),[1]; 18.75 mg/ml inhalation 25 min,65.59%
same,Lung Index,[1]; 18.75 mg/ml inhalation 25 min,0.77 ± 0.08 g lung weight × 100 g/body weight
same,Inhibition Rate (lung index),[1]; 37.5 mg/ml inhalation 25 min,64.22%
same,Lung Index,[1]; 37.5 mg/ml inhalation 25 min,0.77 ± 0.05 g lung weight × 100 g/body weight
same,Inhibition Rate (lung index),[1]; 75 mg/ml inhalation 25 min,109.19%
same,Lung Index,[1]; 75 mg/ml inhalation 25 min,0.71 ± 0.05 g lung weight × 100 g/body weight
same,Inhibition Rate (lung index),[2]; 9.375 mg/ml inhalation 25 min,49.42%
same,Lung Index,[2]; 9.375 mg/ml inhalation 25 min,0.79 ± 0.09 g lung weight × 100 g/body weight
same,Inhibition Rate (lung index),[2]; 18.75 mg/ml inhalation 25 min,75.73%
same,Lung Index,[2]; 18.75 mg/ml inhalation 25 min,0.76 ± 0.04 g lung weight × 100 g/body weight
same,Inhibition Rate (lung index),[2]; 37.5 mg/ml inhalation 25 min,90.30%
same,Lung Index,[2]; 37.5 mg/ml inhalation 25 min,0.74 ± 0.08 g lung weight × 100 g/body weight
same,Inhibition Rate (lung index),[2]; 75 mg/ml inhalation 25 min,102.88%
same,Lung Index,[2]; 75 mg/ml inhalation 25 min,0.72 ± 0.05 g lung weight × 100 g/body weight
same,First Batch Inhibition Rate,[3]; 37.5 mg/ml inhalation 15 min,73.01
same,First Batch Lung Index,[3]; 37.5 mg/ml inhalation 15 min,0.76 ± 0.09
same,Second Batch Inhibition Rate,[3]; 37.5 mg/ml inhalation 15 min,56.34
same,Second Batch Lung Index,[3]; 37.5 mg/ml inhalation 15 min,0.68 ± 0.08
same,First Batch Inhibition Rate,[3]; 75 mg/ml inhalation 15 min,93.06
same,First Batch Lung Index,[3]; 75 mg/ml inhalation 15 min,0.72 ± 0.05
same,Second Batch Inhibition Rate,[3]; 75 mg/ml inhalation 15 min,64.09
same,Second Batch Lung Index,[3]; 75 mg/ml inhalation 15 min,0.67 ± 0.07
same,Inflammatory Factor Levels in Lung Tissue IL-1β,[4]; 37.5 mg/ml inhalation,147.59 ± 41.87 pg/mL
same,Inflammatory Factor Levels in Lung Tissue IL-6,[4]; 37.5 mg/ml inhalation,150.92 ± 7.65 pg/mL
same,Inflammatory Factor Levels in Lung Tissue TNF-α,[4]; 37.5 mg/ml inhalation,248.53 ± 93.97 pg/mL
same,Inflammatory Factor Levels in Lung Tissue IL-1β,[4]; 75 mg/ml inhalation,148.31 ± 10.97 pg/mL
same,Inflammatory Factor Levels in Lung Tissue IL-6,[4]; 75 mg/ml inhalation,163.92 ± 8.54 pg/mL
same,Inflammatory Factor Levels in Lung Tissue TNF-α,[4]; 75 mg/ml inhalation,312.79 ± 81.52 pg/mL
same,Inhibition Rate (lung index),[5]; [8],48.85
same,Lung Index,[5]; [8],0.91 ± 0.09 g/100 g body weight
same,Inhibition Rate (lung index),[5]; [9],94.65
same,Lung Index,[5]; [9],0.85 ± 0.14 g/100 g body weight
same,Inhibition Rate (lung index),[5]; [10],77.10
same,Lung Index,[5]; [10],0.87 ± 0.01 g/100 g body weight
